Measurements as given in ChEMBL document CHEMBL1201862, “PubChem BioAssay data set” (2004).
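Following 48 hours of exposure in 96-well plates, responses at five concentrations were used to interpolate endpoints linearly. GI50 = concentration required for 50% inhibition of growth.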 Active and inactive are the calls of the source. Rule as the data show it: active = GI50 up to about 1.1 µM and inactive = higher.

Key:
Assay in all cases: NCI anticancer screen, dose series, 48 h
CCRF-CEM = test system: CCRF-CEM
A498 = test system: A498
SK-MEL-28 = test system: SK-MEL-28
NCI-H226 = test system: NCI-H226
HCC 2998 = test system: HCC 2998
NCI-H460 = test system: NCI-H460
SK-MEL-5 = test system: SK-MEL-5
SNB-75 = test system: SNB-75
IGROV-1 = test system: IGROV-1
TK-10 = test system: TK-10
HL-60 = test system: HL-60
HOP-62 = test system: HOP-62
OVCAR-3 = test system: OVCAR-3
786-0 = test system: 786-0
ACHN = test system: ACHN
SF-268 = test system: SF-268
SF-539 = test system: SF-539
RXF 393 = test system: RXF 393

Measured: GI50

CCN1C(=O)N2C(OC)c3ccccc3C(Br)C2(OC)C1=O (configuration not stated)
inactive: CCRF-CEM > 100 µM | A498 > 100 µM | SK-MEL-28 > 100 µM | NCI-H226 > 100 µM | HCC 2998 > 100 µM | NCI-H460 > 100 µM | SK-MEL-5 > 100 µM | SNB-75 48.3 µM | IGROV-1 > 100 µM | TK-10 > 100 µM | HL-60 > 100 µM | HOP-62 > 100 µM | OVCAR-3 > 100 µM

NC(CCCCNC(=O)C(Cc1ccccc1)NC(=O)OCc1ccccc1)C(=O)NC(CCCCNC(=O)C(Cc1ccccc1)NC(=O)OCc1ccccc1)C(=O)NC(CCCCNC(=O)C(Cc1ccccc1)NC(=O)OCc1ccccc1)C(=O)NC(CCCCNC(=O)C(Cc1ccccc1)NC(=O)OCc1ccccc1)C(=O)NC(CCCCNC(=O)C(Cc1ccccc1)NC(=O)OCc1ccccc1)C(=O)NC(CCCCNC(=O)C(Cc1ccccc1)NC(=O)OCc1ccccc1)C(=O)O (configuration not stated)
inactive: CCRF-CEM > 100 µM | 786-0 > 100 µM | SK-MEL-28 > 100 µM | NCI-H226 > 100 µM | HCC 2998 > 100 µM | NCI-H460 > 100 µM | SK-MEL-5 > 100 µM | SNB-75 > 100 µM | ACHN > 100 µM | IGROV-1 > 100 µM | SF-268 > 100 µM | TK-10 > 100 µM | HL-60 > 100 µM | HOP-62 > 100 µM | OVCAR-3 > 100 µM

Cn1c(=O)c2ccccc2c2nc3ccccc3nc21
inactive: 786-0 97.5 µM | SF-539 92.3 µM | SK-MEL-28 > 100 µM | NCI-H226 > 100 µM | HCC 2998 > 100 µM | SK-MEL-5 > 100 µM | SNB-75 25.2 µM | ACHN > 100 µM | IGROV-1 > 100 µM | RXF 393 > 100 µM | SF-268 > 100 µM | TK-10 45.5 µM

CN1CCCC2[C@@H]3CCC4c5nonc5CC[C@]4(C)C3CC[C@@]21C (some centres not stated)
inactive: 786-0 > 100 µM | SF-539 > 100 µM | SK-MEL-28 37.6 µM | NCI-H226 > 100 µM | NCI-H460 > 100 µM | SK-MEL-5 42.5 µM | SNB-75 23.4 µM | ACHN > 100 µM | IGROV-1 > 100 µM | RXF 393 50.1 µM | TK-10 > 100 µM

CC1CCC2(CC1)NN=c1s/c(=C\c3ccc(O)cc3)c(=O)n1N2 (configuration not stated)
inactive: CCRF-CEM > 100 µM | 786-0 > 100 µM | SF-539 > 100 µM | SK-MEL-28 > 100 µM | NCI-H226 > 100 µM | HCC 2998 > 100 µM | NCI-H460 > 100 µM | SK-MEL-5 > 100 µM | SNB-75 63.5 µM | IGROV-1 > 100 µM | RXF 393 > 100 µM | SF-268 > 100 µM | TK-10 > 100 µM | HL-60 > 100 µM | HOP-62 > 100 µM | OVCAR-3 > 100 µM

Cc1nn(C(=O)Cc2ccccc2)c2c1C(c1ccc3ccccc3c1O)SC(=N)N2 (configuration not stated)
inactive: CCRF-CEM 22.1 µM | A498 > 100 µM | SF-539 > 100 µM | SK-MEL-28 > 100 µM | NCI-H226 > 100 µM | HCC 2998 > 100 µM | NCI-H460 > 100 µM | SK-MEL-5 > 100 µM | SNB-75 52.1 µM | ACHN > 100 µM | IGROV-1 > 100 µM | SF-268 > 100 µM | TK-10 > 100 µM | HL-60 39.6 µM | HOP-62 > 100 µM

COc1ccc(S(=O)(=O)N/N=C/CN2C(=O)c3ccccc3C2=O)cc1OC
inactive: CCRF-CEM > 100 µM | 786-0 > 100 µM | A498 > 100 µM | SF-539 > 100 µM | HCC 2998 > 100 µM | NCI-H460 > 100 µM | SK-MEL-5 > 100 µM | SNB-75 65.2 µM | ACHN > 100 µM | IGROV-1 > 100 µM | RXF 393 > 100 µM | SF-268 > 100 µM | HL-60 > 100 µM | HOP-62 > 100 µM | OVCAR-3 > 100 µM
